For data set [1], the target named is T1, JEV helicase (Japanese encephalitis virus, UniProt P32886).
T1 sequence (P32886 1676-2123 limits assumed): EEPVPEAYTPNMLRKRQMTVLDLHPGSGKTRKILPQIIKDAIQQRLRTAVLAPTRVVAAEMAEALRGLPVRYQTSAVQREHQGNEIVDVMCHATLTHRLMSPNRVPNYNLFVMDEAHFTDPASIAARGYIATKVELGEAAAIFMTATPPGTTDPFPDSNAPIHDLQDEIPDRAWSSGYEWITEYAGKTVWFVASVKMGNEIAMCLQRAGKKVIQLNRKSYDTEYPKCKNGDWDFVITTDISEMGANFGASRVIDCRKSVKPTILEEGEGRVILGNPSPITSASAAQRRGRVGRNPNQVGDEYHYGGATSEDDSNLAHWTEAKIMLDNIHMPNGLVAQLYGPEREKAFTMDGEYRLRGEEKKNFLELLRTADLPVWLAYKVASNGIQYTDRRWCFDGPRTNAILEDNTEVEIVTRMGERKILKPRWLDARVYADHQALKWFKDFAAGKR
Put plainly: Isothermal titration calorimetry, JEV helicase. The data set is classed as binding. The following applies: ITC, 16°C. Background: In ITC the heat of successive injections is recorded.

For data set [2] the following is noted: rats, radiolabeled Zafirlukast; ref Zeng et al., 2020; cited from earlier work.
The conditions of data set [3]: at higher doses, preclinical models; ref Finnerty et al., 1992; cited from earlier work.
In data set [4] the target is DENV2 helicase (Dengue virus type 2, UniProt P29990). Put plainly: Isothermal titration calorimetry, DENV2 helicase. The data set is classed as binding. The note with it: ITC, 16°C.
Sequence of DENV2 helicase (P29990 1646-2093 limits assumed): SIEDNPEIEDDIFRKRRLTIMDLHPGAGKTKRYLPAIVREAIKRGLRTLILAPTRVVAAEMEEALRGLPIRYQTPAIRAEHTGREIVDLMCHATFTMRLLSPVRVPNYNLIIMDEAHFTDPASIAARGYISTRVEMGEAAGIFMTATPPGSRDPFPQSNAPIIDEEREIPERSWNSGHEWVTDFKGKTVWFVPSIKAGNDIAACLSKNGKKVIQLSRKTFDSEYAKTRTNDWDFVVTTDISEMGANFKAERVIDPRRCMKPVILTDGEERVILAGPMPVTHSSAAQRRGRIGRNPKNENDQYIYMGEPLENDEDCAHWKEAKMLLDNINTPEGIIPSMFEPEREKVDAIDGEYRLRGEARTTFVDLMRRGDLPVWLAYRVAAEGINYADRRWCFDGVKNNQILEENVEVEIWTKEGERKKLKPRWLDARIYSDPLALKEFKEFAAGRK
Data set [5] deals with TBEV helicase (Tick-borne encephalitis virus, UniProt Q01299). The data set is described as follows: biochemical. The data set is classed as binding.
Sequence of TBEV helicase (Q01299 1666-2110 limits assumed): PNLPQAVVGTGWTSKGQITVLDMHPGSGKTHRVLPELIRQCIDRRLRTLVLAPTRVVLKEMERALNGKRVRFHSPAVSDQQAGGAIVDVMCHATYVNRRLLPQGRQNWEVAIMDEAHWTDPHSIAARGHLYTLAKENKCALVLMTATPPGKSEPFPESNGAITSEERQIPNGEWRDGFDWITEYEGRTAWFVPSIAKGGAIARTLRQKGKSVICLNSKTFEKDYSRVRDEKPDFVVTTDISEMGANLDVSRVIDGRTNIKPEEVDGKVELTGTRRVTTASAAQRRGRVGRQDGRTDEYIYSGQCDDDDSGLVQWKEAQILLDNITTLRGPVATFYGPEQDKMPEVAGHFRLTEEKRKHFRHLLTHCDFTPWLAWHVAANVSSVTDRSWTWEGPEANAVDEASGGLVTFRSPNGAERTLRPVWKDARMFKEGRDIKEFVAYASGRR
The target of data set [6] is DENV4 helicase (Dengue virus type 4, UniProt Q2YHF0). Put plainly: Isothermal titration calorimetry, DENV4 helicase. The data set is classed as binding. The note with it: ITC.
Sequence of DENV4 helicase (Q2YHF0 1645-2092 limits assumed): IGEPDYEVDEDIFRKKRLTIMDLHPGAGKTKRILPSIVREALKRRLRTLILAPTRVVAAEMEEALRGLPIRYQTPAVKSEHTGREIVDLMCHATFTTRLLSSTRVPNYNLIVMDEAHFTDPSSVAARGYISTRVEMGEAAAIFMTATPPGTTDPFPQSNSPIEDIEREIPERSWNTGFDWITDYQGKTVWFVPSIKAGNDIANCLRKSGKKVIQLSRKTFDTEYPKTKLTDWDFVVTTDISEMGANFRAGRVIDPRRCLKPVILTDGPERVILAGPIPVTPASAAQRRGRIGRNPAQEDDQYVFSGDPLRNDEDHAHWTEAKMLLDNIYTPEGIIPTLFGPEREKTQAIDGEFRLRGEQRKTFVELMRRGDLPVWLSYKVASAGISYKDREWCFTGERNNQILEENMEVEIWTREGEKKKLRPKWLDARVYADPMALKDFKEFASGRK
For data set [7], the target named is YFV helicase (Yellow fever virus, UniProt P03314). Put plainly: biochemical. The data set is classed as binding.
Sequence of YFV helicase (P03314 1660-2107 limits assumed): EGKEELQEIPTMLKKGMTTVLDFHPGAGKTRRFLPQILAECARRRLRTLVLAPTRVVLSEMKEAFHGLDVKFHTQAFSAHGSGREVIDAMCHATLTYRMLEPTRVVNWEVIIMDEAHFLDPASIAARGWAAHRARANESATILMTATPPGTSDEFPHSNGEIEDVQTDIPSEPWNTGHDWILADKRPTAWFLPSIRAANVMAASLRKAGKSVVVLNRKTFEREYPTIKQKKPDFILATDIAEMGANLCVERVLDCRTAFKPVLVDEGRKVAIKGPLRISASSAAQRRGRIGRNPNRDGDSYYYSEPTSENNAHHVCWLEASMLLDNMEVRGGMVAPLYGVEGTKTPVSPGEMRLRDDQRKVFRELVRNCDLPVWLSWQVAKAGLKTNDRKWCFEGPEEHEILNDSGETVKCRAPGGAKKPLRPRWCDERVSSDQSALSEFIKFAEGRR
In data set [8] the target is T2, ZIKV helicase (Zika virus, UniProt Q32ZE1).
T2 sequence (Q32ZE1 1670-2115 limits assumed): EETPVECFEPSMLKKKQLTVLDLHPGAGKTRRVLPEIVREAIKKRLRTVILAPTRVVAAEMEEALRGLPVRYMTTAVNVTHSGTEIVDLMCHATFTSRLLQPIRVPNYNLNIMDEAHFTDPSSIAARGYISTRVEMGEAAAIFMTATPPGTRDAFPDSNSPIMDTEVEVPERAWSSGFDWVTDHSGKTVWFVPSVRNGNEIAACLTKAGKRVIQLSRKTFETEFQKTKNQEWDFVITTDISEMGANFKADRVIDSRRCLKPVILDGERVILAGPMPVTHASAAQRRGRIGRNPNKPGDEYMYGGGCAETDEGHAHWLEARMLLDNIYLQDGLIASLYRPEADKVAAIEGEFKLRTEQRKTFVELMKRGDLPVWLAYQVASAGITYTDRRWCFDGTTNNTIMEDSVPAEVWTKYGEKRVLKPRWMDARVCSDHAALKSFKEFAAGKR
The data set is described as follows: Isothermal titration calorimetry, ZIKV helicase. The data set is classed as binding. The note with it: ITC, 16°C.

Each structure is given as a SMILES string.

The source of these data is PMC12521441 (Frontiers in Cellular and Infection Microbiology, 2025).

Broadly, the Kd is the concentration at which binding is half-saturated. Low readings indicate a tighter complex, high ones a looser complex.

As to `COc1cc(C(=O)NS(=O)(=O)c2ccccc2C)ccc1Cc1cn(C)c2ccc(NC(=O)OC3CCCC3)cc12` [Zafirlukast], the Kd came to 199 µM in data set [1]; 2.73 µM in data set [4]; 361 µM in data set [5]; 1.57 µM in data set [6]; 6.59 µM in data set [7]; 13.9 µM in data set [8]. Also, the “Distribution across the blood-brain barrier” value in data set [2] is listed as “minimal distribution across the blood–brain barrier”. The Tumor incidence result in data set [3] was “increased incidence of hepatocellular tumors, histiocytic sarcoma, and bladder cancer”.
